Our source for the IC50 values is patent publication US11407763B2, “Tryptophan hydroxylase inhibitor and pharmaceutical composition including same” (GWANGJU INSTITUTE OF SCIENCE AND TECHNOLOGY, priority 2017, dated 2022).

Molecules are shown by their SMILES. Where a name gives a salt, the structure may show the parent alone.

The assay concerns the target TPH1 (tryptophan hydroxylase 1) (Homo sapiens (Human), UniProt P17752). The experiment in a line: TPH1 inhibitor screening assay kit (BPS Bioscience), fluorescence. Type of assay: biochemical. Here is the method: In order to confirm the inhibitory effect of the compound represented by formula 1 according to the present invention on the tryptophan hydroxylase activity, it was measured using a TPH1 (tryptophan hydroxylase 1) inhibitor screening assay kit (BPS Bioscience, Catalog #72053). The TPH1 inhibitor screening assay kit was used according to the manufacturer's manual.
Particularly, the synthesized compound was dissolved in DMSO, which was added to a 96-well microplate (10 ? /well), to which TPH1 enzyme was added (40 ? /well). Then, TPH1 reaction solution was added to the microplate (50 ? /well) and the microplate was shaded with aluminum foil. The microplate was transferred to 4° C. environment, shaken carefully and incubated for 4 hours. After adding a quench solution to the microplate (10 ? /well), the TPH1 activity was measured by reading the degree of fluorescence color development with a Flexstation3 microplate reader. At this time, the excitation spectrum was 300 nm and the emission spectrum was 360 nm.

Where [1] appears, read: TPH1 enzyme, 4 hours at 4° C., ex 300 nm / em 360 nm.
[2] abbreviates: TPH1 enzyme, 4 hours at 4° C., ex 300 nm / em 360 nm, hydrochloride.

TPH1 (tryptophan hydroxylase 1), sequence (P17752 whole entry): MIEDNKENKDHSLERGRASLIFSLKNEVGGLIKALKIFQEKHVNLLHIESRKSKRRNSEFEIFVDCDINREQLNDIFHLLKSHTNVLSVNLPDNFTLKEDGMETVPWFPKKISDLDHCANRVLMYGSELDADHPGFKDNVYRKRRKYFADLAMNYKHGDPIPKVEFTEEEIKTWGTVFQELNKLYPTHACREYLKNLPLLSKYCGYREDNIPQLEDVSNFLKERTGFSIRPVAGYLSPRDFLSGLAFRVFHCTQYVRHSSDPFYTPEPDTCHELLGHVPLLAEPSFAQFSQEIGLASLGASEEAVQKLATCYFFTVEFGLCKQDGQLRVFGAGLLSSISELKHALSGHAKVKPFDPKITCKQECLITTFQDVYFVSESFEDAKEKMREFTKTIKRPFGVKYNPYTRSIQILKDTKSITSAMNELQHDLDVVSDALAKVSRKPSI

What is called IC50 is the concentration that gives 50% inhibition. A higher IC50 goes with lower potency. `Cc1ccn(-c2cc(Cl)ccc2[C@@H](Oc2ncnc3c(-c4ccc(C[C@H](N)C(=O)O)cc4)csc23)C(F)(F)F)n1` [Example 8, (S)-2-amino-3-(4-(4-((R)-1-(4-chloro-2-(3-methyl-1H-pyrazole-1-yl)phenyl)-2,2,2-trifluoroethoxy)thieno[3,2-d]pyrimidine-7-yl)phenyl)propionic acid hydrochloride]: the IC50 reads like this: (TPH1) 36 nM; under setting [1], 36 nM.
As to `COc1cccc(-c2ccc(Cn3ccc4c(-c5ccc(C[C@H](N)C(=O)O)cc5)nc(N)nc43)cc2)c1` [Example 12, (S)-2-amino-3-(4-(2-amino-7-((3′-methoxy-[1,1′-biphenyl]-4-yl)methyl)-7H-pyrrolo[2,3-d]pyrimidine-4-yl)phenyl)propionic acid hydrochloride], the IC50 under setting [1] is 297 nM.
The same measure, in the same setting: the value for `CCOC(=O)[C@@H](N)Cc1ccc(-c2csc3c(O[C@H](c4ccc(Cl)cc4-n4ccc(C)n4)C(F)(F)F)ncnc23)cc1` [Example 22, ethyl (S)-2-amino-3-(4-(4-((R)-1-(4-chloro-2-(3-methyl-1H-pyrazole-1-yl)phenyl)-2,2,2-trifluoroethoxy)thieno[3,2-d]pyrimidine-7-yl)phenyl)propionate hydrochloride] was 993 nM.
Regarding `COc1cccc(-c2ccc(Cn3ccc4c(-c5ccc(C[C@H](N)C(=O)O)cc5)ncnc43)cc2)c1` [Example 23, (S)-2-amino-3-(4-(7-((3′-methoxy-[1,1′-biphenyl]-4-yl)methyl)-7H-pyrrolo[2,3-d]pyrimidine-4-yl)phenyl)propionic acid hydrochloride], under setting [1], half-maximal inhibition (IC50) required 578 nM.
The same measure, in the same setting: the value for `N[C@@H](Cc1ccc(-c2csc3c(O[C@H](c4ccc(Cl)cc4-c4cccc(F)c4)C(F)(F)F)ncnc23)cc1)C(=O)O` [Example 24, (S)-2-amino-3-(4-(4-((R)-1-(5-chloro-3′-fluoro-[1,1′-biphenyl]-2-yl)-2,2,2-trifluoroethoxy)thieno[3,2-d]pyrimidine-7-yl)phenyl)propionic acid hydrochloride] was 565 nM; that for `N[C@@H](Cc1ccc(-c2csc3c(OC(c4ccc(Cl)cc4-c4ccccc4)C(F)(F)F)ncnc23)cc1)C(=O)O` (stereo partly drawn) [Example 26, (2S)-2-amino-3-(4-(4-(1-(5-chloro-[1,1′-biphenyl]-2-yl)-2,2,2-trifluoroethoxy)thieno[3,2-d]pyrimidine-7-yl)phenyl)propionic acid hydrochloride] was 679 nM.
Under setting [1], `Cc1ccn(-c2cc(Cl)ccc2[C@@H](Oc2ncnc3c(C4=CCC(C[C@H](N)C(=O)O)CC4)csc23)C(F)(F)F)n1` (stereo partly drawn) [Example 30, (2S)-2-amino-3-(4-(4-((R)-1-(4-chloro-2-(3-methyl-1H-pyrazole-1-yl)phenyl)-2,2,2-trifluoroethoxy)thieno[3,2-d]pyrimidine-7-yl)cyclohex-3-ene-1-yl)propionic acid hydrochloride] had an IC50 of 1510 nM.
Regarding `Cc1ccn(-c2cc(Cl)ccc2[C@@H](Oc2cc(C3=CCC(C[C@H](N)C(=O)O)CC3)nc(N)n2)C(F)(F)F)n1` (stereo partly drawn) [Example 31, (2S)-2-amino-3-(4-(2-amino-6-((R)-1-(4-chloro-2-(3-methyl-1H-pyrazole-1-yl)phenyl)-2,2,2-trifluoroethoxy)pyrimidine-4-yl)cyclohex-3-ene-1-yl)propionic acid hydrochloride], the IC50 under setting [2] stood at 114 nM.
Turning to `Cc1ccn(-c2cc(Cl)ccc2[C@@H](Oc2cc(C3=CCC(C[C@H](N)C(=O)O)CC3)nc(C)n2)C(F)(F)F)n1` (stereo partly drawn) [Example 32, (2S)-2-amino-3-(4-(6-((R)-1-(4-chloro-2-(3-methyl-1H-pyrazole-1-yl)phenyl)-2,2,2-trifluoroethoxy)-2-methylpyrimidine-4-yl)cyclohex-3-ene-1-yl)propionic acid hydrochloride], under setting [1], the IC50 was determined as 1820 nM.
In turn, `COc1cccc(-c2ccc([C@@H](Oc3cc(C4=CCC(C[C@H](N)C(=O)O)CC4)nc(N)n3)C(F)(F)F)cc2)c1` (stereo partly drawn) [Example 34, (2S)-2-amino-3-(4-(2-amino-6-((R)-2,2,2-trifluoro-1-(3′-methoxy-[1,1′-biphenyl]-4-yl)ethoxy)pyrimidine-4-yl)cyclohex-3-ene-1-yl)propionic acid hydrochloride] gave an IC50 under setting [2] of 281 nM.
As for `Cc1ccn(-c2cc(Cl)ccc2[C@@H](Oc2cc(C3=CCC(C[C@H](N)C(=O)O)CC3)nc(N)n2)C(F)(F)F)n1` (stereo partly drawn) [Example 45, (2S)-2-amino-3-(4-(2-amino-6-((R)-1-(4-chloro-2-(3-methyl-1H-pyrazole-1-yl)phenyl)-2,2,2-trifluoroethoxy)pyrimidine-4-yl)cyclohex-3-ene-1-yl)propionic acid], the IC50 reads like this: (TPH1) 98 nM; under setting [1], 98 nM.
In turn, `N[C@@H](Cc1ccc(-c2csc3c(OC(c4ccc(Cl)cc4-c4ccc(F)cc4)C(F)(F)F)ncnc23)cc1)C(=O)O` (stereo partly drawn) [Example 46, (2S)-2-amino-3-(4-(4-(1-(5-chloro-4′-fluoro-[1,1′-biphenyl]-2-yl)-2,2,2-trifluoroethoxy)thieno[3,2-d]pyrimidine-7-yl)phenyl)propionic acid hydrochloride] gave an IC50 under setting [1] of 8720 nM.
With `Nc1nc(OC(c2ccc(Cl)cc2-c2ccccc2)C(F)(F)F)cc(C2=CCC(C[C@H](N)C(=O)O)CC2)n1` (stereo partly drawn) [Example 48, (2S)-2-amino-3-(4-(2-amino-6-(1-(5-chloro-[1,1′-biphenyl]-2-yl)-2,2,2-trifluoroethoxy)pyrimidine-4-yl)cyclohex-3-ene-1-yl)propionic acid hydrochloride], inhibition under setting [1] was half-maximal at 433 nM (IC50).
Still for that read-out and setting: the same measure for `COc1cccc(-c2ccc([C@@H](Oc3cc(C4=CCC(C[C@H](N)C(=O)O)CC4)nc(N)n3)C(F)(F)F)cc2)c1` (stereo partly drawn) [Example 58, (2S)-2-amino-3-(4-(2-amino-6-((R)-2,2,2-trifluoro-1-(3′-methoxy-[1,1′-biphenyl]-4-yl)ethoxy)pyrimidine-4-yl)cyclohex-3-ene-1-yl)propionic acid]: 204 nM.
In turn, `Nc1nc(O[C@H](c2ccc(Cl)cc2C2=CCCOC2)C(F)(F)F)cc(C2=CCC(C[C@H](N)C(=O)O)CC2)n1` (stereo partly drawn) [Example 66, (2S)-2-amino-3-(4-(2-amino-6-((R)-1-(4-chloro-2-(5,6-dihydro-2H-pyran-3-yl)phenyl)-2,2,2-trifluoroethoxy)pyrimidine-4-yl)cyclohex-3-ene-1-yl)propionic acid hydrochloride] came in with an IC50 under setting [2] of 125 nM.
`Nc1nc(O[C@H](c2ccc(Cl)cc2C2=CCCOC2)C(F)(F)F)cc(C2=CCC(C[C@H](N)C(=O)O)CC2)n1` (stereo partly drawn) [Example 67, (2S)-2-amino-3-(4-(2-amino-6-((R)-1-(4-chloro-2-(5,6-dihydro-2H-pyran-3-yl)phenyl)-2,2,2-trifluoroethoxy)pyrimidine-4-yl)cyclohex-3-ene-1-yl)propionic acid] returned an IC50 (TPH1) of 91 nM.
As to `N[C@@H](Cc1ccc(-c2csc3c(O[C@H](c4ccc(Cl)cc4C4=CCCOC4)C(F)(F)F)ncnc23)cc1)C(=O)O` [Example 69, (S)-2-amino-3-(4-(4-((R)-1-(4-chloro-2-(5,6-dihydro-2H-pyran-3-yl)phenyl)-2,2,2-trifluoroethoxy)thieno[3,2-d]pyrimidine-7-yl)phenyl)propionic acid hydrochloride], the IC50 under setting [2] came out at 263 nM.
For the compound `N[C@@H](Cc1ccc(-c2csc3c(O[C@H](c4ccc(Cl)cc4C4=CCCOC4)C(F)(F)F)ncnc23)cc1)C(=O)O` [Example 70, (S)-2-amino-3-(4-(4-((R)-1-(4-chloro-2-(5,6-dihydro-2H-pyran-3-yl)phenyl)-2,2,2-trifluoroethoxy)thieno[3,2-d]pyrimidine-7-yl)phenyl)propionic acid], the IC50 under setting [1] came to 371 nM.
